Measured values published in patent US7423048B2, “Compounds for treating fundic disaccomodation” (Janssen Pharmaceutica, N.V., priority 2000, dated 2008).
Marks after values point to notes of the source that are not given here.

System: fundus of the stomach (gastric tone) in conscious dogs
Assay: Gastric tone measured by an electronic barostat in conscious dogs
Type: in vivo, beagle dogs
Details: 1 hour observation period, constant pressure 6 mmHg
Description: C. Pharmacological Examples C.1 Gastric Tone Measured by an Electronic Barostat in Conscious Dogs
Gastric tone cannot be measured by manometric methods. Therefore an electronic barostat was used. This allows the study of the physiological pattern and regulation of gastric tone in conscious dogs and the influence of test-compounds on this tone.
The barostat consists of an air injection system which is connected by a double-lumen 14-French polyvinyl tube to an ultrathin flaccid polyethylene bag (maximal volume: ±700 ml). Variations in gastric tone were measured by recording changes in the volume of air within an intragastric bag, maintained at a constant pressure. The barostat maintains a constant pressure (preselected) within a flaccid air-filled bag introduced into the stomach, changing the volume of air within the bag by an electronic feedback system.
Thus the barostat measures gastric motor activity (contraction or relaxation) as changes in intragastric volume (decrease or increase resp.) at a constant intragastric pressure. The barostat consists of a strain gauge linked by an electronic relay to an air injection-aspiration system. Both the strain gauge and the injection system are connected by means of double-lumen polyvinyl tube to an ultrathin polyethylene bag. A dial in the barostat allows selection of the pressure level to be maintained within the intragastric bag.
Female beagle dogs, weighing 7-17 kg, were trained to stand quietly in Pavlov frames. They were implanted with a gastric cannula under general anaesthesia and aseptic precautions. After a median laparotomy, an incision was made through the gastric wall in longitudinal direction between the greater and the lesser curve, 2 cm above the nerves of Latarjet. The cannula was secured to the gastric wall by means of a double purse string suture and brought out via a stub wound at the left quadrant of the hypochondrium. Dogs were allowed a recovery period of two weeks.
At the beginning of the experiment, the cannula was opened in order to remove any gastric juice or food remnants. If necessary, the stomach was cleansed with 40 to 50 ml lukewarm water. The ultrathin bag of the barostat was positioned into the fundus of the stomach through the gastric cannula. In order to ensure easy unfolding of the intragastric bag during the experiment, a volume of 300-400 ml was injected twice into the bag.
When during a stabilisation period of maximum 90 minutes, the gastric volume is stable during 15 minutes at a constant pressure of 6 mmHg (about 0.81 kPa), the test compound was administered subcutaneously (S.C.), or intraduodenally (I.D.). Test compounds were screened, i.e. changes in gastric volume were measured, usually at 0.63 mg/kg. […] Table C-1 summarizes the mean maximal change in volume on relaxation of the fundus, during the 1 hour observation period after S.C. or I.D. administration of the test compound (0.63 mg/kg).

[1] = S.C. administration, 0.63 mg/kg

Row | SMILES | Maximum change in volume (mean maximal change in volume on relaxation of the fundus) [1] [mL] | further results
1 | O=C1NCCCN1CCCNCC1COc2cccnc2O1 (racemic) [Compound 1, (±)-1-[3-[[(2,3-dihydro-1,4-dioxino[2,3-b]pyridin-3-yl)methyl]amino]propyl]tetrahydro-2(1H)pyrimidinone] | 156 | –
2 | O=C(O)C(=O)O.O=C1NCCCN1CCCNCC1CCc2cccnc2O1 (racemic) [Compound 9, (±)-1-[3-[[(3,4-dihydro-2H-pyrano[2,3-b]pyridin-2-yl)methyl]amino]propyl]tetrahydro-2(1H)-pyrimidinone ethanedioate (1:1)] | 78 | –
3 | CC1(C)CNC(=O)N(CCCNCC2Oc3cccnc3O2)C1 (racemic) [Compound 10, (±)-1-[3-[(1,3-dioxolo[4,5-b]pyridin-2-ylmethyl)amino]-propyl]tetrahydro-5,5-dimethyl-2(1H)-pyrimidinone] | 31 | –
4 | O=C1CN(CC(O)CNCC2COc3cccnc3O2)C(=O)N1 (centres unmarked) [Compound 13, 1-[3-[[(2,3-dihydro-1,4-dioxino[2,3-b]pyridin-3-yl)methyl]amino]-2-hydroxypropyl]-2,4-imidiazolidinedione] | – | Maximum change in volume (mean maximal change in volume on relaxation of the fundus) (I.D. administration, 0.63 mg/kg): 118 mL
5 | O=C1CCN(CCCNC[C@H]2COc3cccnc3O2)C(=O)N1 [Compound 25, (S)-1-[3-[[(2,3-dihydro[1,4]dioxino[2,3-b]pyridin-3-yl)methyl]amino]-propyl]dihydro-2,4(1H,3H)-pyrimidinedione] | – | Maximum change in volume (mean maximal change in volume on relaxation of the fundus) (I.D. administration, 0.04 mg/kg (footnote *)): 226* ml
